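A five-concentration, 48-hour dose response in 96-well plates underlies each endpoint, interpolated linearly between surrounding concentrations. The concentration for 50% growth inhibition is given as GI50.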 Active and inactive are the calls of the source. Rule as the data show it: active = GI50 up to about 1.1 µM and inactive = higher.
Legend:
Test in all cases: growth of human tumour cells (NCI), 48 h
SK-MEL-2 = tested on: SK-MEL-2
EKVX = tested on: EKVX
CAKI-1 = tested on: CAKI-1
UO-31 = tested on: UO-31
NCI-H522 = tested on: NCI-H522
SR = tested on: SR
HCC 2998 = tested on: HCC 2998
LOX IMVI = tested on: LOX IMVI
SF-539 = tested on: SF-539
RPMI-8226 = tested on: RPMI-8226
A498 = tested on: A498
ACHN = tested on: ACHN
COLO 205 = tested on: COLO 205
KM-20L2 = tested on: KM-20L2
OVCAR-5 = tested on: OVCAR-5
MDA-N = tested on: MDA-N
MDA-MB-435 = tested on: MDA-MB-435
PC-3 = tested on: PC-3
NCI/ADR-RES = tested on: NCI/ADR-RES
MCF7 = tested on: MCF7

Row | Structure (SMILES) | GI50 (SK-MEL-2) | GI50 (EKVX) | GI50 (CAKI-1) | GI50 (UO-31) | GI50 (NCI-H522) | GI50 (SR) | GI50 (HCC 2998) | GI50 (LOX IMVI) | GI50 (SF-539) | GI50 (RPMI-8226) | GI50 (A498) | GI50 (ACHN) | GI50 (COLO 205) | GI50 (KM-20L2) | GI50 (OVCAR-5) | GI50 (MDA-N) | GI50 (MDA-MB-435) | GI50 (PC-3) | GI50 (NCI/ADR-RES) | GI50 (MCF7)
1 | O=C(Nc1cc(Cl)c(Cl)cc1Cl)C(=O)C1C(=O)NC(=S)NC1=O | > 100 µM (inactive) | > 100 µM (inactive) | > 100 µM (inactive) | > 100 µM (inactive) | > 100 µM (inactive) | > 100 µM (inactive) | > 100 µM (inactive) | > 100 µM (inactive) | > 100 µM (inactive) | > 100 µM (inactive) | > 100 µM (inactive) | > 100 µM (inactive) | > 100 µM (inactive) | > 100 µM (inactive) | > 100 µM (inactive) |  |  |  |  | 
2 | CCNc1nc2c(=O)n(C)c(=O)n(C)c2s1 | > 100 µM (inactive) | > 100 µM (inactive) |  | > 100 µM (inactive) | > 100 µM (inactive) |  | > 100 µM (inactive) | > 100 µM (inactive) | > 100 µM (inactive) | > 100 µM (inactive) | > 100 µM (inactive) | > 100 µM (inactive) | > 100 µM (inactive) | > 100 µM (inactive) | > 100 µM (inactive) |  |  |  |  | 
3 | CSC(=S)NNC(=O)c1ccncc1 | 17.4 µM (inactive) | 22.2 µM (inactive) | 21.1 µM (inactive) | 17.8 µM (inactive) | 16.9 µM (inactive) | 14.6 µM (inactive) | 23.6 µM (inactive) | 16.8 µM (inactive) | 19.8 µM (inactive) | 22.3 µM (inactive) | 70 µM (inactive) | 18.1 µM (inactive) | 34.9 µM (inactive) | 32.7 µM (inactive) | 23.9 µM (inactive) |  |  |  |  | 
4 | [N-]=[N+]=N/C1=C/CCCCC(=O)C1 | > 100 µM (inactive) | > 100 µM (inactive) | > 100 µM (inactive) | > 100 µM (inactive) | 71.1 µM (inactive) |  | > 100 µM (inactive) | > 100 µM (inactive) |  | > 100 µM (inactive) |  |  | > 100 µM (inactive) | > 100 µM (inactive) | > 100 µM (inactive) |  |  |  |  | 
5 | COc1cc2c(c(OC)c1OC)-c1ccc(SC)c(=O)cc1[C@@H](NCc1ccccc1[N+](=O)[O-])CC2 | 0.0217 µM (active) | 0.0564 µM (active) | 0.01 µM (active) | 0.01 µM (active) | 0.011 µM (active) |  | 0.0128 µM (active) | 0.00834 µM (active) | 0.00525 µM (active) | 0.00671 µM (active) | 0.00417 µM (active) | 0.0439 µM (active) | 0.0082 µM (active) | 0.00314 µM (active) | 0.0216 µM (active) |  |  |  |  | 
6 | COc1cccc(NC(=O)C(=O)C2C=CCS2(=O)=O)c1 (centres undefined) | > 100 µM (inactive) | > 100 µM (inactive) | > 100 µM (inactive) | > 100 µM (inactive) | > 100 µM (inactive) | > 100 µM (inactive) | > 100 µM (inactive) | > 100 µM (inactive) | > 100 µM (inactive) | > 100 µM (inactive) | > 100 µM (inactive) | > 100 µM (inactive) | > 100 µM (inactive) | > 100 µM (inactive) | > 100 µM (inactive) |  |  |  |  | 
7 | COc1cc(C(O)C(=O)c2nc3ccc([N+](=O)[O-])cc3nc2O)ccc1O (centres undefined) | > 100 µM (inactive) | 90.6 µM (inactive) | > 100 µM (inactive) | > 100 µM (inactive) | 18.8 µM (inactive) | > 100 µM (inactive) | 74.1 µM (inactive) | 40.1 µM (inactive) | 58.1 µM (inactive) | 77.3 µM (inactive) | 34.6 µM (inactive) | 54.2 µM (inactive) | > 100 µM (inactive) | 69.7 µM (inactive) | > 100 µM (inactive) |  |  |  |  | 
8 | Cc1ccc(C)c(NC(=O)/C(=N\NC(N)=S)C(C#N)c2ccccc2)c1 (centres undefined) | > 100 µM (inactive) | > 100 µM (inactive) | > 100 µM (inactive) | > 100 µM (inactive) | > 100 µM (inactive) | > 100 µM (inactive) | > 100 µM (inactive) |  | > 100 µM (inactive) | > 100 µM (inactive) | > 100 µM (inactive) | > 100 µM (inactive) | > 100 µM (inactive) | > 100 µM (inactive) | > 100 µM (inactive) |  |  |  |  | 
9 | CC(=O)O[C@H]1C=CC23OC(=O)[C@]1(C)[C@H]2[C@H](C(=O)O)C12CC(=O)[C@@](CO)(CC[C@H]13)C2 | > 100 µM (inactive) | > 100 µM (inactive) | > 100 µM (inactive) | > 100 µM (inactive) | > 100 µM (inactive) | > 100 µM (inactive) | > 100 µM (inactive) | > 100 µM (inactive) | > 100 µM (inactive) | > 100 µM (inactive) |  | > 100 µM (inactive) | > 100 µM (inactive) | > 100 µM (inactive) | > 100 µM (inactive) |  |  |  |  | 
10 | O=C(CC1(O)C(=O)Nc2ccc([N+](=O)[O-])cc21)c1ccc(Br)cc1 (centres undefined) | > 100 µM (inactive) | > 100 µM (inactive) |  | 45.1 µM (inactive) | 19.6 µM (inactive) |  | > 100 µM (inactive) | 60.4 µM (inactive) | 59.4 µM (inactive) | 35.5 µM (inactive) | 23.2 µM (inactive) | 56.6 µM (inactive) | > 100 µM (inactive) | > 100 µM (inactive) | > 100 µM (inactive) |  |  |  |  | 
11 | COC(=O)/C=C(C)/C=C/c1c(C)c(C(C)=O)c(C)n1C |  | 88.5 µM (inactive) | 63.5 µM (inactive) | 61.1 µM (inactive) | 51.1 µM (inactive) |  | > 100 µM (inactive) | > 100 µM (inactive) | > 100 µM (inactive) | 57.7 µM (inactive) | > 100 µM (inactive) | > 100 µM (inactive) | > 100 µM (inactive) | > 100 µM (inactive) | > 100 µM (inactive) |  |  |  |  | 
12 | CC1=CC(=O)N(c2c(C)cccc2Cl)C(C)N1 (centres undefined) | > 100 µM (inactive) | > 100 µM (inactive) | > 100 µM (inactive) | > 100 µM (inactive) | > 100 µM (inactive) |  | > 100 µM (inactive) | > 100 µM (inactive) | > 100 µM (inactive) |  | > 100 µM (inactive) | > 100 µM (inactive) | > 100 µM (inactive) | > 100 µM (inactive) | > 100 µM (inactive) |  |  |  |  | 
13 | COC(OC)C(C)CC(=O)N(C)C (centres undefined) | > 100 µM (inactive) | > 100 µM (inactive) |  | > 100 µM (inactive) |  |  | > 100 µM (inactive) | > 100 µM (inactive) | > 100 µM (inactive) | > 100 µM (inactive) | > 100 µM (inactive) | > 100 µM (inactive) | > 100 µM (inactive) | > 100 µM (inactive) | > 100 µM (inactive) |  |  |  |  | 
14 | O=[N+]([O-])c1cc(C(F)(F)F)cc([N+](=O)[O-])c1CCl |  | 6.81 µM (inactive) | 3.15 µM (inactive) | 7.87 µM (inactive) | 0.328 µM (active) | 0.388 µM (active) |  | 0.0826 µM (active) | 4.81 µM (inactive) | 1.16 µM (inactive) | 18.6 µM (inactive) | 14.5 µM (inactive) | 2.13 µM (inactive) | 3.98 µM (inactive) | 5.3 µM (inactive) |  |  |  |  | 
15 | O=C(c1ccccc1)C(c1ccccc1)C1(O)C(=O)Nc2ccc([N+](=O)[O-])cc21 (centres undefined) | > 100 µM (inactive) | > 100 µM (inactive) | > 100 µM (inactive) | 47.6 µM (inactive) | 74 µM (inactive) |  | > 100 µM (inactive) | 69.7 µM (inactive) | > 100 µM (inactive) | 37.7 µM (inactive) | > 100 µM (inactive) | 33 µM (inactive) | 26.2 µM (inactive) | > 100 µM (inactive) | > 100 µM (inactive) |  |  |  |  | 
16 | O=[N+]([O-])c1ccc2c(c1)/C(=N/N=C1c3ccccc3Cc3ccccc31)c1cc([N+](=O)[O-])cc([N+](=O)[O-])c1-2 | 9.18 µM (inactive) | 5.12 µM (inactive) | 3.6 µM (inactive) | 2.05 µM (inactive) | 1.63 µM (inactive) | 4.61 µM (inactive) | 5.85 µM (inactive) | 2.24 µM (inactive) | 2.99 µM (inactive) | 4.39 µM (inactive) | 5.75 µM (inactive) | 2.99 µM (inactive) | 3.21 µM (inactive) |  | 2.75 µM (inactive) | 3.36 µM (inactive) | 1.79 µM (inactive) | 2.76 µM (inactive) | 2.19 µM (inactive) | 1.65 µM (inactive)
17 | CN1C(=O)C(=CNc2ccccc2Cl)C(=O)N(C)C1=O | 19.2 µM (inactive) | > 100 µM (inactive) | > 100 µM (inactive) | > 100 µM (inactive) | > 100 µM (inactive) | 19.4 µM (inactive) | 18.7 µM (inactive) | 15.3 µM (inactive) | 20.6 µM (inactive) | 16.9 µM (inactive) | > 100 µM (inactive) | 24.5 µM (inactive) | > 100 µM (inactive) |  | 24.8 µM (inactive) | > 100 µM (inactive) | > 100 µM (inactive) | 20.2 µM (inactive) | > 100 µM (inactive) | 24 µM (inactive)
18 | COC(=O)c1ccccc1C#CC#Cc1ccccc1C(=O)OC | > 10 µM (inactive) | > 10 µM (inactive) | > 10 µM (inactive) | > 10 µM (inactive) | > 10 µM (inactive) | > 10 µM (inactive) | > 10 µM (inactive) | 7 µM (inactive) | > 10 µM (inactive) | > 10 µM (inactive) | > 10 µM (inactive) | > 10 µM (inactive) | 1.69 µM (inactive) |  | > 10 µM (inactive) | > 10 µM (inactive) | > 10 µM (inactive) | 9.06 µM (inactive) | > 10 µM (inactive) | 0.611 µM (active)
19 | O=C(/C=C/c1ccc(OCCCOc2ccc(/C=C/C(=O)c3ccc(Cl)cc3)cc2)cc1)c1ccc(Cl)cc1 | > 100 µM (inactive) | > 100 µM (inactive) | > 100 µM (inactive) |  | > 100 µM (inactive) | > 100 µM (inactive) | > 100 µM (inactive) | > 100 µM (inactive) | > 100 µM (inactive) | > 100 µM (inactive) |  | > 100 µM (inactive) | > 100 µM (inactive) | > 100 µM (inactive) | > 100 µM (inactive) |  |  |  |  | 

Source: ChEMBL document CHEMBL1201862, “PubChem BioAssay data set” (2004)
